Key:
LOX = experiment: SC levels in regenerating planaria with lipoxygenase inhibitor (LC-MS-MS); format: in vivo, Dugesia japonica; conditions: measured 3 days post-surgery
Protocol: Planaria regeneration: Planaria (Dugesia japonica; Dj) were kept in water (Poland Spring) at 18° C. All animals were starved for at least 7 days prior to experiments. Tissue regeneration was assessed as in (12). Briefly, planaria were subject to head resection post-occularly (surgical Injury). […] The extent of tissue regeneration during a 6-day period for D. japonica was determined using captured images of the regenerating blastemas at regular intervals (24 h). These images were analyzed using ImageJ software. A tissue regeneration index (TRI) was employed that took into consideration the size of the regenerated tissue total area (A) and the post-ocular width W of the animal, where TRI=A/W. In determined experiments, planaria were injured and incubated in water, containing 10^8CFU E. coli (serotype O6:K2:H1) or with E. coli plus SCI and SCII (100 nM), and tissue regeneration indices assessed as described above.
Lipid mediator metabololipidomics and isolation of bioactive fractions: Peritoneal exudates and exudate cell incubations were immediately placed in 2 volumes of methanol. For lipid mediator profiling, 500 pg each of deuterium-labeled internal standards: d8-5S-HETE, d4-LTB4, d5-LXA4, d4-PGE2, and d5-LTC4 were added to facilitate quantification in each respective chromatographic region and sample recovery. […]

[1] = test system: Planaria (Dugesia japonica); experiment: Planaria tissue regeneration after surgical injury (head resection), tissue regeneration index; format: in vivo; conditions: surgically injured planaria vs vehicle
Protocol: Planaria regeneration: Planaria (Dugesia japonica; Dj) were kept in water (Poland Spring) at 18° C. All animals were starved for at least 7 days prior to experiments. Tissue regeneration was assessed as in (12). Briefly, planaria were subject to head resection post-occularly (surgical Injury). The posterior portions of the planaria were then placed in spring water containing 0.01% EtOH, SPE-C isolate fraction 2 from resolving exudates or milk at the indicated dilutions, U0126 (Extracellular signal-regulated kinases (ERK) inhibitor; Cell Signaling Technology; 25 μM (16)), U0126 plus resolving exudates SPE-C isolates fraction 2, SCI (100 nM), SCII (100 nM), lipoxygenase inhibitor (baicalein, 10 μM) or lipoxygenase inhibitor plus SCI and SCII (100 nM). The extent of tissue regeneration during a 6-day period for D. japonica was determined using captured images of the regenerating blastemas at regular intervals (24 h). These images were analyzed using ImageJ software. A tissue regeneration index (TRI) was employed that took into consideration the size of the regenerated tissue total area (A) and the post-ocular width W of the animal, where TRI=A/W. In determined experiments, planaria were injured and incubated in water, containing 10^8CFU E. coli (serotype O6:K2:H1) or with E. coli plus SCI and SCII (100 nM), and tissue regeneration indices assessed as described above.
Planaria regeneration: Planaria (Dugesia japonica) were kept in water (Poland. Spring; Nestlé Waters North America, Stamford, Conn., USA) at 18° C. All animals were starved for at least 7 d before the experiments. Tissue regeneration was assessed as described previously (10). In brief, planaria were subjected to head resection postoccularly (surgical injury). The posterior portions of the planaria were then placed in spring water containing 0.01% EtOH, 16-glutathionyl, 17-hydroxyl-4Z,7Z,10,12,14,19Z-docosahexaenoic acid plus 16-cysteinylglycinyl, 7-hydroxyl-4Z,7Z,10,12,14,19Z-docosahexaenoic acid (50 nM; each) or 8-gutathionyl, 7,17-dihydroxyl-4Z9,11,13Z,15E,19Z-docosahexaenoic acid plus 8-cysteinylglycinyl, 7,17-dihydroxyl-4Z,9,11,13Z,15E,19Z-docosahexaenoic acid (50 nM, each). The extent of tissue regeneration during a 6-d period was determined using captured images of the regenerating blastemas at regular intervals (24 h). These images were analyzed using ImageJ software (NIH, Bethesda, Md., USA). A tissue regeneration index (TRI) was used that took into consideration the size of the regenerated tissue total area (A) and the postocular width (W), where TRI=A/W (10).

[2] = test system: Mice (zymosan peritonitis); experiment: Zymosan peritonitis in mice: leukocyte counts and exudate eicosanoids; format: in vivo, mouse; conditions: i.p. prior to 1 mg zymosan; 4 h; MaR1 10 ng
Protocol: In determined experiments, mice were administered SC isolates from regenerating planaria i.p., obtained as described in the lipid mediator metabololipidomics and isolation of bioactive fractions section below, immediately prior to zymosan administration (i.p. 1 mg/mouse). After 4 h, peritoneal exudates were obtained, leukocytes enumerated as detailed above and eicosanoid levels assessed by lipid mediator metabololipidomics as described below.

levels of both SCI and SCII (LOX)	Structure (SMILES)	tissue regeneration / head regrowth (in words) [1]	exudate eicosanoid levels including LTB4 and thromboxane (Tx) B2 [2]	neutrophil recruitment in murine peritonitis [2]
reduced	O=c1cc(-c2ccccc2)oc2cc(O)c(O)c(O)c12 [baicalein, reference compound]	significantly delayed head regrowth		
	CC/C=C\C/C=C\C[C@H](O)\C=C/C=C/C=C/[C@H](O)C/C=C\CCC(=O)O [MaR1, 7R,14S-dihydroxy-docosa-4Z,8E,10E,12Z,16Z,19Z-hexaenoic acid]	accelerated this process to essentially the same extent	shared	shared
